The values below come from patent US11198695B2, “Fused ring derivative having MGAT-2 inhibitory activity” (Shionogi & Co., Ltd., priority 2017, dated 2021).

SMILES strings stand for the structures. pIC50: −log10 of the molar value. “And” between values parts separate entries of the source, which are not always exact repeats. Equal values may be shown once. Read-outs that look alike come from different tables or passages of the source.

One data set deals with recombinant human MGAT2 (Homo sapiens (Human), UniProt Q3SYC2). Put plainly: Measurement of human MGAT2 inhibitory activity. The class given is biochemical. The procedure, abridged:
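Membrane fraction of Sf9 cells expressing N-terminally Flag-tagged full-length human MGAT2, incubated 1 h at room temperature in 100 mmol/L phosphate pH 7.4 with 2 mmol/L DTT. The substrate solution held 30 μmol/L 2-oleoylglycerol and 10 μmol/L oleoyl-CoA. Diolein product was quantified by RapidFire ESI Q-TOF MS against diolein-d5 internal standard; % inhibition was set relative to with/without-enzyme controls.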

Data set [1] in a line: Metabolism stability test. Format: in vitro ADME. The following applies: human liver microsomes, 30 minutes, 37° C., NADPH, 0.5 μmol/L of test compound. The protocol: Using commercially available pooled human hepatic microsomes, the compound of the present invention was reacted for a constant time, a remaining rate was calculated by comparing a reacted sample and an unreacted sample, thereby, a degree of metabolism of the compound of the present invention in liver was assessed.
A reaction was performed (oxidative reaction) at 37° C. for 0 minute or 30 minutes in the presence of 1 mmol/L NADPH in 0.2 mL of a buffer (50 mmol/L Tris-HCl pH 7.4, 150 mmol/L potassium chloride, 10 mmol/L magnesium chloride) containing 0.5 mg protein/mL of human liver microsomes. After the reaction, 50 μL of the reaction solution was added to 100 μL of a methanol/acetonitrile=1/1 (v/v) solution, mixed and centrifuged at 3000 rpm for 15 minutes. The compound of the present invention in the supernatant was quantified by LC/MS/MS, and a remaining amount of the compound of the present invention after the reaction was calculated, letting a compound amount at 0 minute reaction time to be 100%. (Result) Remaining rate was shown at 0.5 μmol/L of test compound.
For orientation: Liver microsomes are a subcellular fraction often used to study metabolism.

Data set [2] in a line: Solubility test (1% DMSO addition, pH 6.8 artificial intestinal juice). The class given is physicochemical. Conditions: 16 hours at 25° C.; for solubility at 16 h: pH 6.8 artificial intestinal juice with 1% DMSO, kinetic from dmso stock. The protocol: The solubility of the compound of the present invention was determined under 1% DMSO addition conditions. 10 mmol/L solution of the compound was prepared with DMSO, and 6 μL of the solution of the compound of the present invention was added to 594 μL of pH 6.8 artificial intestinal juice (118 mL of 0.2 mol/L NaOH test solution and water were added to 250 mL of 0.2 mol/L potassium dihydrogen phosphate test solution to reach 1000 mL). The mixture was left standing for 16 hours at 25° C., and the mixture was vacuum-filtered. The filtrate was two-fold diluted with methanol/water=1/1 (V/V), and the compound concentration in the filtrate was measured with HPLC or LC/MS/MS by the absolute calibration method.

The target of a further data set is CYP1A2 (Homo sapiens (Human), UniProt P05177). The data set can be described thus: CYP inhibition test (7-ethoxyresorufin O-deethylation). Format: in vitro ADME. Conditions: pooled human liver microsomes. The text has this:
(§1) Using commercially available pooled human hepatic microsome, and employing, as markers, 7-ethoxyresorufin O-deethylation (CYP1A2), tolbutamide methyl-hydroxylation (CYP2C9), mephenytoin 4′-hydroxylation (CYP2C19), dextromethorphan O-demethylation (CYP2D6), and terfenadine hydroxylation (CYP3A4) as typical substrate metabolism reactions of human main five CYP enzyme forms (CYP1A2, 2C9, 2C19, 2D6, 3A4), an inhibitory degree of each metabolite production amount by the compound of the present invention was assessed. […]
(§2) As a reaction solution, each five kinds of substrates, human liver microsomes, or compound of the present invention in 50 mmol/L Hepes buffer were added to a 96-well plate at the composition as described above, and NADPH, as a cofactor was added to initiate metabolism reactions. […] After the centrifugation at 3000 rpm for 15 minutes, resorufin (CYP1A2 metabolite) in the supernatant was quantified by a fluorescent multilabel counter or LC/MS/MS, and tolbutamide hydroxide (CYP2C9 metabolite), mephenytoin 4′ hydroxide (CYP2C19 metabolite), dextrorphan (CYP2D6 metabolite), and terfenadine alcohol (CYP3A4 metabolite) were quantified by LC/MS/MS.
(§3) Addition of only DMSO being a solvent dissolving a drug to a reaction system was adopted as a control (100%). Remaining activity (%) was calculated. […]

In another data set the target is CYP2D6 (Homo sapiens (Human), UniProt P10635). The data set can be described thus: CYP inhibition test (dextromethorphan O-demethylation). The following applies: pooled human liver microsomes. Format: in vitro ADME.
Text: as §1, §2, §3

Another data set has as its target CYP2C19 (Homo sapiens (Human), UniProt P33261). Put plainly: CYP inhibition test (mephenytoin 4'-hydroxylation). Format: in vitro ADME. Conditions: pooled human liver microsomes.
Text: as §1, §2, §3

Data set [3] concerns the target T1, CYP3A4 (Homo sapiens (Human), UniProt P08684). The data set can be described thus: CYP inhibition test (terfenadine hydroxylation). Format: in vitro ADME. The following applies: pooled human liver microsomes.
Text: as §1, §2, §3

For another data set, the target named is CYP2C9 (Homo sapiens (Human), UniProt P11712). Put plainly: CYP inhibition test (tolbutamide methyl-hydroxylation). The following applies: pooled human liver microsomes. Format: in vitro ADME.
Text: as §1, §2, §3

Data set [4] addresses T1, CYP3A4. Put plainly: CYP3A4 (MDZ) MBI test. Format: in vitro ADME. Conditions: pooled human liver microsomes, preincubation 0 or 30 min. How it is done: CYP3A4 (MDZ) MBI test is a test of investigating mechanism based inhibition (MBI) potential on CYP3A4 by the enhancement of inhibitory degree of a metabolic reaction caused by the compound of the present invention. CYP3A4 inhibition was evaluated using pooled human liver microsomes by 1-hydroxylation reaction of midazolam (MDZ) as a marker reaction. […]
Pooled human liver microsomes and a solution of the compound of the present invention in K-Pi buffer (pH 7.4) as a pre-reaction solution were added to a 96-well plate at the composition of the pre-reaction. […] The plate on which each index reaction had been performed was centrifuged at 3000 rpm for 15 minutes, and thereafter 1-hydroxylated midazolam in the supernatant was quantified by LC/MS/MS.
The sample adding DMSO as a solvent to a reaction system instead of a solution dissolving the compound of the present invention was adopted as a control (100%). Remaining activity (%) was calculated at each concentration of the compound of the present invention compared to a control, and IC value was calculated by reverse-presumption by a logistic model using a concentration and an inhibition rate. […]

Where [5] appears, read: read-out: IC50 (concentration exhibiting 50% enzyme inhibition), Table 52.
The mark [6] stands for this setting: read-out: IC50 (concentration exhibiting 50% enzyme inhibition), Table 53.

Chain of recombinant human MGAT2 (Q3SYC2 whole entry): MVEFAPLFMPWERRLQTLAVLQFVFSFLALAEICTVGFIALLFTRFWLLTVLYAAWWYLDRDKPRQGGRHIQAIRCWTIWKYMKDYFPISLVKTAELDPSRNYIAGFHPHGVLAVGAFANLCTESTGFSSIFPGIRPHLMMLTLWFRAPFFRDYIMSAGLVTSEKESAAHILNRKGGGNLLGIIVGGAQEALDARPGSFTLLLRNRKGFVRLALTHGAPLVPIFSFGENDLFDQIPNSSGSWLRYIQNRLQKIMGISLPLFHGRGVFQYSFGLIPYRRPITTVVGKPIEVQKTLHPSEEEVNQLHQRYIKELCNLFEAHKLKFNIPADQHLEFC
T1 sequence (P08684 whole entry): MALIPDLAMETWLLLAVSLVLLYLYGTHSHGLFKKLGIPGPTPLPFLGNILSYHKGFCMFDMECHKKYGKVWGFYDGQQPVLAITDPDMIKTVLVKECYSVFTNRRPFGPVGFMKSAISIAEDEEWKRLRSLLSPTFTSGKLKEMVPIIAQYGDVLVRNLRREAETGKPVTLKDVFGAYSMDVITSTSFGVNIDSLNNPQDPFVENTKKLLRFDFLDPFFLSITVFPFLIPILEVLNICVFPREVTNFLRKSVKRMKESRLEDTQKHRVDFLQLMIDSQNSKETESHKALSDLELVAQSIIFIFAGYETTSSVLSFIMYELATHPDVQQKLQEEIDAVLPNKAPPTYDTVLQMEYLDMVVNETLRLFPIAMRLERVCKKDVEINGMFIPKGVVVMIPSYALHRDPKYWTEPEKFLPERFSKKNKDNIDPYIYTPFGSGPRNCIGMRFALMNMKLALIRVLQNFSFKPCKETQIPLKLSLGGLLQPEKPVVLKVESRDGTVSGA
Chain of CYP2C9 (P11712 whole entry): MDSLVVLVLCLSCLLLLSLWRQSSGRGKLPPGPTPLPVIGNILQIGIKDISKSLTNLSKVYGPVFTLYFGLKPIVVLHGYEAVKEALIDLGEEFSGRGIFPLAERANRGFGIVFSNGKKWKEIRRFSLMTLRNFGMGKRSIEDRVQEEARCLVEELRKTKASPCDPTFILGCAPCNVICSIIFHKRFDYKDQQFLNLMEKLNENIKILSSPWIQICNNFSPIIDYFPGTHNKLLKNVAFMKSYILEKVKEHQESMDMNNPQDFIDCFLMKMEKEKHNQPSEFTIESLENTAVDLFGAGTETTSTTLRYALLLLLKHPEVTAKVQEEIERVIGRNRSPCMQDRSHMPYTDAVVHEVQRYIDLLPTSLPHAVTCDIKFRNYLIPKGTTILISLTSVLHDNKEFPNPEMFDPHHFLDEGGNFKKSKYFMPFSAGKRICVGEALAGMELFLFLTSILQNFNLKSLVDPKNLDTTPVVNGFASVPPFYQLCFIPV
Chain of CYP2D6 (P10635 whole entry): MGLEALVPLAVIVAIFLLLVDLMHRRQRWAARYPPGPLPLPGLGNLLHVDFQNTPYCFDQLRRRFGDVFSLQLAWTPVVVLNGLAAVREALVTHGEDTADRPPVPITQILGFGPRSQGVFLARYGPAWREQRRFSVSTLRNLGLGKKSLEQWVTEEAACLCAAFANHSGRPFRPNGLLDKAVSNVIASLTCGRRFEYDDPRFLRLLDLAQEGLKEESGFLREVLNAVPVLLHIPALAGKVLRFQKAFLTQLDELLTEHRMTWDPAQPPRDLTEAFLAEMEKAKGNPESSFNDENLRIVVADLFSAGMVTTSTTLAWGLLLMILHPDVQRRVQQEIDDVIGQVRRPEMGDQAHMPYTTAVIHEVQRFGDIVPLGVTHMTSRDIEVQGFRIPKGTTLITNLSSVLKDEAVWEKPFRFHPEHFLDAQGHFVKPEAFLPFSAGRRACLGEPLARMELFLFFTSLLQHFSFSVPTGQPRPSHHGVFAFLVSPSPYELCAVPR
Chain of CYP1A2 (P05177 whole entry): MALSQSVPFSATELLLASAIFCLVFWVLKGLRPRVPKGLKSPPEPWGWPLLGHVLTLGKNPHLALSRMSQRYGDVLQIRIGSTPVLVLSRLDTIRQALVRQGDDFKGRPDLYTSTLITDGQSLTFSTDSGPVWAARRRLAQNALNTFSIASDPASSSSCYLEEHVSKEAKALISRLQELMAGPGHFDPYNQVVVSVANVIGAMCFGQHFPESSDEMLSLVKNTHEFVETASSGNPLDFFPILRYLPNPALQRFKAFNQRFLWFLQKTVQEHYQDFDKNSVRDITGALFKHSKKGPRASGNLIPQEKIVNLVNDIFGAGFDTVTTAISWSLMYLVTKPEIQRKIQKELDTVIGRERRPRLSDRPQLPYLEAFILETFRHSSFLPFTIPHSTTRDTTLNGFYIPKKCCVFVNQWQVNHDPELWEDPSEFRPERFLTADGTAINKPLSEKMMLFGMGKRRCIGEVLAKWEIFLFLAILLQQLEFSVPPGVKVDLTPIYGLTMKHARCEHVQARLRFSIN
Chain of CYP2C19 (P33261 whole entry): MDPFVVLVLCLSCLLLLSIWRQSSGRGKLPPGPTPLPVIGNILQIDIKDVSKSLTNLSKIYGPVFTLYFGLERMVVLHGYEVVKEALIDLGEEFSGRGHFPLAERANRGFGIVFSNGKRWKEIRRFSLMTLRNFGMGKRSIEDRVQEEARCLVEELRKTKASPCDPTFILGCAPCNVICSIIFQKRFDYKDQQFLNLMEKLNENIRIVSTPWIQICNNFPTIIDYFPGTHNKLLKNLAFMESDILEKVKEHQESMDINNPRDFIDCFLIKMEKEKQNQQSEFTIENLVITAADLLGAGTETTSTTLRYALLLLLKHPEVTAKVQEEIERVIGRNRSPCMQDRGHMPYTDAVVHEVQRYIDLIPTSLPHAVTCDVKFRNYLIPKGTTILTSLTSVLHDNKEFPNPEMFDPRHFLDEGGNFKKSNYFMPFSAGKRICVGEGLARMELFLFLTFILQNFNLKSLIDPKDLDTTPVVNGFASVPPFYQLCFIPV

Consider `O=C1N[C@@]2(CCc3cc(OCCCC(F)(F)F)ccc32)Cc2nn(CCC3CC3)c(-c3nn[nH]n3)c21` [Compound I-24], for which the pIC50 on recombinant human MGAT2 (setting [5]) was 8.05. Further, in [1], the “Remaining rate (%)” value was found to be 78.2%. The Solubility (commonly the concentration that dissolves in the medium under given conditions) in data set [2] is over 50 µM.

For `CS(=O)(=O)CC(=O)Nc1c2c(nn1-c1ccc(C#N)cn1)C[C@]1(CCc3cc(N4CC(F)(F)C4)ccc31)NC2=O` [Compound I-67], the pIC50 on recombinant human MGAT2 (setting [5]) was 8.15. Besides, the “Remaining rate (%)” value in data set [1] was 89%. For the same compound, the solubility (in general, the concentration that dissolves in the medium under given conditions) at 16 h in [2] was over 50 µM.

As for `CS(=O)(=O)CC(=O)Nc1c2c(nn1-c1ccc(C#N)cn1)C[C@@]1(CCc3cc(OCC(F)(F)F)ccc31)NC2=O` [Compound I-167], the pIC50 on recombinant human MGAT2 (setting [5]) was 8.48. Moreover, the “Remaining rate (%)” value in data set [1] is 89%. The same compound displayed a solubility at 16 h in data set [2] of over 50 µM.

As for `CS(=O)(=O)CC(=O)Nc1c2c(nn1-c1ccc(C#N)cn1)C[C@](c1ccc(OCC(F)(F)F)cc1F)(C(F)(F)F)NC2=O` [Compound I-170], the pIC50 on recombinant human MGAT2 (setting [5]) is 8.29. Besides, in data set [1], the “Remaining rate (%)” value came out at 100%. In [2], this compound had a solubility at 16 h of over 50 µM.

As to `O=C1N[C@@]2(CCOc3cc(OCCCC(F)(F)F)ccc32)Cc2nn(CCC3CC3)c(-c3nn[nH]n3)c21` [Compound I-200], the pIC50 on recombinant human MGAT2 (setting [5]) is 8.25. The “Remaining rate (%)” value in data set [1] worked out at 94%. Further, the solubility at 16 h in data set [2] was over 50 µM.

Consider `Cc1ccc(-n2nc3c(c2NC(=O)CS(C)(=O)=O)C(=O)N[C@@]2(CCc4cc(OCCCC(F)(F)F)ccc42)C3)nn1` [II-103], for which the pIC50 against CYP1A2, on CYP2D6, on CYP2C19, at CYP3A4 [3] and at CYP2C9 was under 4.70 throughout. Further, in data set [1], the “Remaining rate (%)” value was determined as 95.6%. Also, the solubility at 16 h in [2] was over 50 µM. Moreover, the “CYP3A4 (MDZ) MBI judgement (Shifted IC)” value at CYP3A4 [4] is reported as “Negative (a case that Shifted IC was 1.0 or less was regarded as Negative)”.

On to `CS(=O)(=O)CC(=O)Nc1c2c(nn1CCCOC(F)(F)F)C[C@@]1(CCOc3cc(OCC(F)(F)F)ccc31)NC2=O` [II-121], for which, on recombinant human MGAT2 (setting [6]), the pIC50 was 8.54. Besides, the “Remaining rate (%)” value in data set [1] stood at 89.7%. Moreover, the “Solubility” value in data set [2] was over 50 µM.

Take `Cc1ccc(-n2nc3c(c2C(=O)NS(=O)(=O)C2CC2)C(=O)N[C@@]2(CCc4cc(OCC(F)(F)F)ccc42)C3)nc1` [II-202]: the pIC50 on recombinant human MGAT2 (setting [6]) is 8.04 and > 9.00. In [1], the “Remaining rate (%)” value is reported as 98.7%. This compound displayed a solubility at 16 h in data set [2] of over 50 µM.

Take `Cc1cc(-n2nc3c(c2NC(=O)CS(C)(=O)=O)C(=O)N[C@@]2(CCOc4cc(OCCCC(F)(F)F)ccc42)C3)no1` [II-233]: the pIC50 on recombinant human MGAT2 (setting [6]) was 9.65. Besides, in data set [1], the “Remaining rate (%)” value is on record as 94.7%. In data set [2], this compound came in with a solubility at 16 h of over 50 µM.

Consider `Cc1ccc(-n2nc3c(c2NC(=O)C2CS(=O)(=O)C2)C(=O)N[C@@]2(CCOc4cc(OCC(F)(F)F)ccc42)C3)nc1` [II-270], for which, on recombinant human MGAT2 (setting [6]), the pIC50 is 8.90. The “Remaining rate (%)” value in [1] turned out to be 99.9%. This compound also came in with a solubility at 16 h in data set [2] of over 50 µM.

In the case of `CS(=O)(=O)CC(=O)Nc1c2c(nn1-c1ccc(F)cn1)C[C@]1(CCOc3cc(OCC(F)(F)F)ccc31)NC2=O` [II-295], the pIC50 at recombinant human MGAT2 (setting [6]) is over 9.00. The “Remaining rate (%)” value in [1] is reported as 102%. The solubility at 16 h in data set [2] was over 50 µM.
